Results: ChEMBL document CHEMBL6153089, “Design, Synthesis, and Biological Evaluation of Thieno[3,2-d]pyrimidine Derivatives as the First Bifunctional PI3Kδ Isoform Selective/Bromodomain and Extra-Terminal Inhibitors” (J Med Chem, 2025)
pIC50: −log10 of the molar value. Activity calls are given as the source filed them. The rule behind the calls is not given here.

Tests used:
[1] = target: T1, PI3-kinase p110-delta/p85-alpha (Homo sapiens) (UniProt P27986+O00329); experiment: Inhibition of p110delta/p85alpha (unknown origin) at 100 nM incubated for 2 hrs in presence of ATP by ADP-kinaseGlo reagent based assay relative to control; type: protein-complex assay
[2] = target: Bromodomain-containing protein 4 (Homo sapiens, UniProt O60885); experiment: Inhibition of His-tagged BRD4-BD1 (unknown origin) incubated for 30 mins in presence of ATP by Alphascreen assay
SUD4 [3] = experiment: Antiproliferative against activity human SU-DHL-4 cells assessed as inhibition of cell growth incubated for 72 hrs by Celltiter-luminescence analysis; type: functional, cell-based; conditions: SU-DHL-4, 72 h
SU-DHL-6 [4] = experiment: Antiproliferative against activity human SU-DHL-6 cells assessed as inhibition of cell growth incubated for 72 hrs by Celltiter-luminescence analysis; type: functional, cell-based; conditions: SU-DHL-6, 72 h
[5] = target: Phosphatidylinositol 4,5-bisphosphate 3-kinase catalytic subunit gamma isoform (Homo sapiens, UniProt P48736); experiment: Inhibition of PI3Kgamma (unknown origin) incubated for 2 hrs in presence of ATP by ADP-kinaseGlo reagent based assay
Chain of Phosphatidylinositol 4,5-bisphosphate 3-kinase catalytic subunit gamma isoform (P48736 whole entry, canonical isoform): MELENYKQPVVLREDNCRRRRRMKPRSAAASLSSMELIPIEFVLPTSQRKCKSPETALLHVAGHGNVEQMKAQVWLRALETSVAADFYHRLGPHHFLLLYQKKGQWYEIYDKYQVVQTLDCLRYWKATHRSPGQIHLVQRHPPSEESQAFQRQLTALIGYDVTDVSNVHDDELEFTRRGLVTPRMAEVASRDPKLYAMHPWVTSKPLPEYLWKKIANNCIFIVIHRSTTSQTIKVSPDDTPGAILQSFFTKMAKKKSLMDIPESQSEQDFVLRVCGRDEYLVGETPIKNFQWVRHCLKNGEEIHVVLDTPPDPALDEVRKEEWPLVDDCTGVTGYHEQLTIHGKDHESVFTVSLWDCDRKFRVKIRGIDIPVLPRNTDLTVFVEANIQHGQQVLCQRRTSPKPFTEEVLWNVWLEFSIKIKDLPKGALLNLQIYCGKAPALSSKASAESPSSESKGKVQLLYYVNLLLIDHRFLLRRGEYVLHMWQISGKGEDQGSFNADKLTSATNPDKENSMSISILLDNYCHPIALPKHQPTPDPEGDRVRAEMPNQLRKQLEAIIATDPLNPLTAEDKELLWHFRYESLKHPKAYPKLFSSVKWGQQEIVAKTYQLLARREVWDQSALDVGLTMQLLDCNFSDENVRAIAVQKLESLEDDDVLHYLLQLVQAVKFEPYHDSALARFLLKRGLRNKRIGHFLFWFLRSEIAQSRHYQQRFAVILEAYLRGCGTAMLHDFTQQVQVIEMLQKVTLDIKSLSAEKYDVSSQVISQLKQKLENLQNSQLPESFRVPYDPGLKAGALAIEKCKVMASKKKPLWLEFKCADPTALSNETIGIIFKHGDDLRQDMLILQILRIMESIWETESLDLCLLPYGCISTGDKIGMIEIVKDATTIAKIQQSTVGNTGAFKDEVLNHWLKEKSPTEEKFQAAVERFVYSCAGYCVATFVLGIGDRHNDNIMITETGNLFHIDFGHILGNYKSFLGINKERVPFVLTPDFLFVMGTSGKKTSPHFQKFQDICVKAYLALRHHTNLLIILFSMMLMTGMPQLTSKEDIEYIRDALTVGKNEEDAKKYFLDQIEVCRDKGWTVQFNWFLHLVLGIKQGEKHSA

[6] = target: Serine/threonine-protein kinase mTOR (Homo sapiens, UniProt P42345); experiment: Inhibition of mTOR (unknown origin) incubated for 2 hrs in presence of ATP by ADP-kinaseGlo reagent based assay
Homo sapiens [7] = species: Homo sapiens; experiment: Inhibition of human p110alpha/p65alpha at 1 uM relative to control
[8] = system: PI3-kinase p110-alpha/p85-alpha (Homo sapiens), P27986+P42336 [E542K]; experiment: Inhibition of human p110alpha-E545K mutant/p85alpha at 1 uM relative to control; type: protein-complex assay
Homo sapiens [9] = species: Homo sapiens; experiment: Inhibition of human p110alpha-H1047R mutant/p85alpha at 1 uM relative to control
[10] = target: T1, PI3-kinase p110-delta/p85-alpha (Homo sapiens); experiment: Inhibition of human p110delta/p85alpha at 1 uM relative to control; type: protein-complex assay
[11] = target: Phosphatidylinositol 5-phosphate 4-kinase type-2 alpha (Homo sapiens) (UniProt P48426); experiment: Inhibition of human PIP4K2alpha at 1 uM relative to control
Chain of Phosphatidylinositol 5-phosphate 4-kinase type-2 alpha (Homo sapiens) (P48426 whole entry): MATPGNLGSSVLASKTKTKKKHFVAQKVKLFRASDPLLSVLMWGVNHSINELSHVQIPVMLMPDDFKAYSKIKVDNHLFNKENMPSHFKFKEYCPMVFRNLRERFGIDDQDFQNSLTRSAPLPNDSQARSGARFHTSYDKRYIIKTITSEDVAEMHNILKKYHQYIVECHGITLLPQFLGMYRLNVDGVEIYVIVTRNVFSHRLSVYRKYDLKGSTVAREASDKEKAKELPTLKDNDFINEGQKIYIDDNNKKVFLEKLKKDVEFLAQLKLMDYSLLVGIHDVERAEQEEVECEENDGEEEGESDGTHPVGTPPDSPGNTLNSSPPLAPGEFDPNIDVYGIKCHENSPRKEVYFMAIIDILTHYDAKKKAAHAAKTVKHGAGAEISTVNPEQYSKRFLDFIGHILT

[12] = target: Phosphatidylinositol 4-phosphate 5-kinase type-1 gamma (Homo sapiens) (UniProt O60331); experiment: Inhibition of human PIP5K1gamma at 1 uM relative to control
Chain of Phosphatidylinositol 4-phosphate 5-kinase type-1 gamma (Homo sapiens) (O60331 whole entry): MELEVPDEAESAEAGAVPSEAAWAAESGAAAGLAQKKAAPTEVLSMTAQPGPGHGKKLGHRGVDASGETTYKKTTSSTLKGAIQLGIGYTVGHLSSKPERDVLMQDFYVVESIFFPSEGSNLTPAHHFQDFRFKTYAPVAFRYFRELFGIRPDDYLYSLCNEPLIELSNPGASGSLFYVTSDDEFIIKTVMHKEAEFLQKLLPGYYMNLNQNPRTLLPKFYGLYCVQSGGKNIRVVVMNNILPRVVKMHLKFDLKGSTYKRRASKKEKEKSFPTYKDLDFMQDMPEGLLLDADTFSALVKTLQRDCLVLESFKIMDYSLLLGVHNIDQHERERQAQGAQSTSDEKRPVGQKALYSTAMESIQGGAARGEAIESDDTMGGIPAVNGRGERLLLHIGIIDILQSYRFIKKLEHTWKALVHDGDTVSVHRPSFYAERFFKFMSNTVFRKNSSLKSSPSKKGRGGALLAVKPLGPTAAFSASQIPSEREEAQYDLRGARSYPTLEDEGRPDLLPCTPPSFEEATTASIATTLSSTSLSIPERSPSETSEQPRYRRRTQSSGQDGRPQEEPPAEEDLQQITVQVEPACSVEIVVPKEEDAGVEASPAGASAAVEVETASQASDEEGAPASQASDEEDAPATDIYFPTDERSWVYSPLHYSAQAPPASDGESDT

SUD4 [13] = experiment: Cell cycle arrest in human SU-DHL-4 cells assessed as accumulation of cells at S phase incubated for 12 hrs by PI staining based flow cytometric analysis; type: functional; conditions: dose 0.25-1 µM
SUD4 [14] = experiment: Induction of apoptosis in human SU-DHL-4 cells assessed as late apoptotic cells at 0.25 uM incubated for 24 hrs by Annexin V-FITC/PI staining based flow cytometric analysis (reference value: 6.74 %); type: functional
SUD4 [15] = experiment: Induction of apoptosis in human SU-DHL-4 cells assessed as necrotic cells at 0.25 uM incubated for 24 hrs by Annexin V-FITC/PI staining based flow cytometric analysis (reference value: 0.642 %); type: functional
SUD4 [16] = experiment: Induction of apoptosis in human SU-DHL-4 cells assessed as viable cells at 0.5 uM incubated for 24 hrs by Annexin V-FITC/PI staining based flow cytometric analysis (reference value: 65.2 %); type: functional; conditions: read-out: Activity
SUD4 [17] = experiment: Induction of apoptosis in human SU-DHL-4 cells assessed as early apoptotic cells at 1 uM incubated for 24 hrs by Annexin V-FITC/PI staining based flow cytometric analysis (reference value: 25.3 %); type: functional
SU-DHL-6 [18] = experiment: Induction of apoptosis in human SU-DHL-6 cells assessed as late apoptotic cells at 0.25 uM incubated for 24 hrs by Annexin V-FITC/PI staining based flow cytometric analysis (reference value: 6.43 %); type: functional
SU-DHL-6 [19] = experiment: Induction of apoptosis in human SU-DHL-6 cells assessed as necrotic cells at 0.5 uM incubated for 24 hrs by Annexin V-FITC/PI staining based flow cytometric analysis (reference value: 0.246 %); type: functional
SU-DHL-6 [20] = experiment: Induction of apoptosis in human SU-DHL-6 cells assessed as viable cells at 1 uM incubated for 24 hrs by Annexin V-FITC/PI staining based flow cytometric analysis (reference value: 61.2 %); type: functional; conditions: read-out: Activity
SU-DHL-6 [21] = experiment: Induction of apoptosis in human SU-DHL-6 cells assessed as early apoptotic cells at 1 uM incubated for 24 hrs by Annexin V-FITC/PI staining based flow cytometric analysis (reference value: 32.1 %); type: functional
SU-DHL-6 [22] = experiment: Induction of apoptosis in human SU-DHL-6 cells assessed as necrotic cells at 1 uM incubated for 24 hrs by Annexin V-FITC/PI staining based flow cytometric analysis (reference value: 0.246 %); type: functional
[23] = target: Glycogen synthase kinase-3 beta (Homo sapiens) (UniProt P49841); experiment: Inhibition of GSK-3beta phosphorylation in human SU-DHL-4 cells at 0.25 to 1 uM incubated for 12 hrs by Western blot analysis; type: cell-based; conditions: dose 0.25-1 µM
Chain of Glycogen synthase kinase-3 beta (Homo sapiens) (P49841 whole entry, looked up): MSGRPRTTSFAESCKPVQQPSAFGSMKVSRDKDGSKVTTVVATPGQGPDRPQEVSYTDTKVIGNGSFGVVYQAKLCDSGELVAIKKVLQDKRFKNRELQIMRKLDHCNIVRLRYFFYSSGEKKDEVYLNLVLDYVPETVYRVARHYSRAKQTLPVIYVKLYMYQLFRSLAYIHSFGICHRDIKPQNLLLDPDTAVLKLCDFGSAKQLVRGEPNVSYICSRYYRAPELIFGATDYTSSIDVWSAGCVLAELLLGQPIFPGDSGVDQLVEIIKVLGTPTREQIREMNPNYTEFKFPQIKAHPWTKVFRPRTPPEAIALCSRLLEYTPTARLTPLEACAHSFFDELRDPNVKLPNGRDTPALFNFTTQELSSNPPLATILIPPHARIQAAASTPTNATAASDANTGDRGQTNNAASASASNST

[24] = target: Glycogen synthase kinase-3 beta (Homo sapiens) (UniProt P49841); experiment: Inhibition of GSK-3beta phosphorylation in human SU-DHL-6 cells incubated for 12 hrs by Western blot analysis; type: cell-based; conditions: dose 0.25-1 µM
SU-DHL-6 [25] = experiment: Induction of apoptosis in human SU-DHL-6 cells assessed as decrease in Bcl-2 protein expression at 0.25 to 1 uM incubated for 12 hrs by Western blot analysis; type: functional, cell-based; conditions: dose 0.25-1 µM
[26] = Cmax in female BALB/c mouse at 1 mg/kg, iv measured after 12 hrs by LC-MS/MS analysis; type: ADME, organism-based; conditions: in vivo
[27] = Clearance in female BALB/c mouse at 1 mg/kg, iv measured after 12 hrs by LC-MS/MS analysis; type: ADME, organism-based; conditions: in vivo
[28] = Oral bioavailability in female BALB/c mouse at 20 mg/kg measured after 24 hrs by LC-MS/MS analysis; type: ADME, organism-based; conditions: in vivo
[29] = Toxicity in female BALB/c mouse model xenografted with human SU-DHL-6 cells assessed as effect on body weight at 20 mg/kg, po administered once daily via gavage for 15 days; type: organism-based; conditions: in vivo, 360 h, time 15 day
[30] = Toxicity in female BALB/c mouse model xenografted with human SU-DHL-6 cells assessed as effect on heart histopathology at 20 mg/kg, po administered once daily via gavage for 15 days by H and E staining based analysis; type: organism-based; conditions: in vivo, 360 h, time 15 day
[31] = Toxicity in female BALB/c mouse model xenografted with human SU-DHL-6 cells assessed as effect on liver histopathology at 20 mg/kg, po administered once daily via gavage for 15 days by H and E staining based analysis; type: organism-based; conditions: in vivo, 360 h, time 15 day
[32] = Toxicity in female BALB/c mouse model xenografted with human SU-DHL-6 cells assessed as effect on spleen histopathology at 20 mg/kg, po administered once daily via gavage for 15 days by H and E staining based analysis; type: organism-based; conditions: in vivo, 360 h, time 15 day
[33] = Toxicity in female BALB/c mouse model xenografted with human SU-DHL-6 cells assessed as effect on kidney histopathology at 20 mg/kg, po administered once daily via gavage for 15 days by H and E staining based analysis; type: organism-based; conditions: in vivo, 360 h, time 15 day
SU-DHL-6 [34] = experiment: Antitumor activity against human SU-DHL-6 cells xenografted in female BALB/c mouse model assessed as reduction in phosphorylated AKT level in tumor at 20 mg/kg, po administered once daily via gavage for 15 days by Western blot analysis; type: functional, organism-based; conditions: time 15.0 day

inhibition [1]: 41.6%
pIC50 [2]: 7.72
pIC50 (SU-DHL-6 [4]): 7.21
pIC50 [5]: 6.04
pIC50 [6]: < 5.00
inhibition (Homo sapiens [7]): 41.9%
inhibition [8]: 17.3%
inhibition (Homo sapiens [9]): 33.7%
inhibition [10]: 94.1%
inhibition [11]: 0.3%
inhibition [12]: 75.7%
inhibition [23]: Active
inhibition [24]: Dose-dependent-effect
Cmax [26]: 544 ng/mL
clearance [27]: 112 mL/min/kg
bioavailability [28]: 74.8%
Structure (SMILES): Cn1cc(-c2nc(N3CCOCC3)c3sc(CN4CCC(C(C)(C)O)CC4)cc3n2)c2cc[nH]c2c1=O
pIC50 (SUD4 [3]): 7.04
Activity (SUD4 [13]): Dose-dependent-effect
Activity (SUD4 [14]): 12.6%
Activity (SUD4 [15]): 1.34%
viability at 0.5 µM (SUD4 [16]): 49.1%
Activity (SUD4 [17]): 45.3%
Activity (SU-DHL-6 [18]): 6.32%
Activity (SU-DHL-6 [19]): 0.67%
viability at 1 µM (SU-DHL-6 [20]): 41.8%
Activity (SU-DHL-6 [21]): 48.9%
Activity (SU-DHL-6 [22]): 0.58%
Activity (SU-DHL-6 [25]): Active; Modest Effect Observed
Activity [29]: Non-toxic
Activity [30]: Non-toxic
Activity [31]: Non-toxic
Activity [32]: Non-toxic
Activity [33]: Non-toxic
Activity (SU-DHL-6 [34]): Active
